“Also recorded” adds a separate entry of the source. Like-named read-outs stand apart in the source and are kept apart here. Each block holds one compound with its values, some of them ahead of it.
Assays:
GABABR1b/GABABR2 [1] = target: T1, GABABR1b/GABABR2 (Rattus norvegicus, UniProt Q9Z0U4); assay: GIRK currents in HEK-293 cells transiently transfected with GABABR1b/GABABR2 + GIRKs (whole-cell patch clamp); assay type: cell-based; design: ligated to a PCR fragment containing the missing base pairs to obtain the full length clone; expressed in transfected cells; settings: HEK-293 doubly transfected cells; CGP55845 at 1 μM, Ba++ 100 μM
T1 sequence (Q9Z0U4 1-844 isoform Q9Z0U4-3, one chain of several): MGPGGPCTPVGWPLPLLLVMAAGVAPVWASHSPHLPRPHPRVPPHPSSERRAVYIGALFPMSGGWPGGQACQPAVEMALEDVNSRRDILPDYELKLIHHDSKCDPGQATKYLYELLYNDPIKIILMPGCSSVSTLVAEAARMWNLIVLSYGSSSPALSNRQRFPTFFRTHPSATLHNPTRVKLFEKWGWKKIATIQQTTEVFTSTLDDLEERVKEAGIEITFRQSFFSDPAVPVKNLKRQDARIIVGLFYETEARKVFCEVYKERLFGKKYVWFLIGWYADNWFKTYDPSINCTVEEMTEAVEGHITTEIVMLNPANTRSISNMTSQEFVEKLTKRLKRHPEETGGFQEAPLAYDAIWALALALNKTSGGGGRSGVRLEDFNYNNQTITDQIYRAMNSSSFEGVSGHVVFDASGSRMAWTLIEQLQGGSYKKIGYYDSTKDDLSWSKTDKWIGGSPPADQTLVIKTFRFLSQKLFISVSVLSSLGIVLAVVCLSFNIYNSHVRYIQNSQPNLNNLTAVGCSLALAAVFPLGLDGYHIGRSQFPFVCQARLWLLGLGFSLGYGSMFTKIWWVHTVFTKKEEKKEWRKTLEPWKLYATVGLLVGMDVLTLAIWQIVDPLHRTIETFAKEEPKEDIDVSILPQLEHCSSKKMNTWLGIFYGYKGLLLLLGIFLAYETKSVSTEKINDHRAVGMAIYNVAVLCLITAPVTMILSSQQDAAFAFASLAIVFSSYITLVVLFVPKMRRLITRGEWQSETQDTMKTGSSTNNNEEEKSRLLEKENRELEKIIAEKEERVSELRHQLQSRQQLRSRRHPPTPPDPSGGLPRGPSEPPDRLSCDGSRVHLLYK

[2] = aged rats; cited from earlier work
[3] = rhesus monkeys; cited from earlier work
GABABR1/R2 = GABABR1/R2 (Rattus norvegicus, UniProt Q9Z0U4); assay: Radioligand binding, membranes from cells co-transfected with GABABR1/R2
Chain of GABABR1/R2 (Q9Z0U4 1-844 isoform Q9Z0U4-3, one chain of several): as above

GABABR1 = GABABR1 (Rattus norvegicus, UniProt Q9Z0U4); assay: Radioligand binding, [3H]-CGP54626, membranes of COS-7 or HEK293 cells expressing GABABR1; settings: for pKi: Displacement of [3H]-CGP54626 from COS-7 cells expressing GABABR1
Chain of GABABR1 (Q9Z0U4 1-844 isoform Q9Z0U4-3): as the sequence (Q9Z0U4 1-844 isoform Q9Z0U4-3, one chain of several) above

GABABR1b/GABABR2 [4] = target: T1, GABABR1b/GABABR2; assay: GIRK currents in Xenopus oocytes expressing GABABR1b/GABABR2 + GIRKs (voltage clamp); assay type: cell-based; design: ligated to a PCR fragment containing the missing base pairs to obtain the full length clone; linearized DNA plasmids containing the complete coding region of the gene; expressed in transfected cells; host or cells: Xenopus laevis oocytes, mRNA injection; settings: for pKB: GABABR1 + GABABR2, oocytes, antagonist, measured using GABA as agonist, n = 4-6 oocytes; for Shift of the GABA concentration-response curve: CGP55845 at 50 nM, CGP54626 at 5 μM, FIG. 15B
Procedure: Human heart cDNA was used as template together with the primers
Dual electrode voltage clamp (“GeneClamp”, Axon Instruments Inc., Foster City, Calif.) is performed using 3 M KCl-filled glass microelectrodes having resistances of 1-3 Mohms. […] Experiments are carried out at room temperature.
Fits were made with a Marquardt-Levenberg non-linear least-squares curve fitting algorithm.

rat GABABR1/rat GABABR2 = rat GABABR1/rat GABABR2 (Rattus norvegicus, UniProt Q9Z0U4); assay: Microphysiometry (extracellular acidification) in CHO cells co-expressing rat GABABR1/rat GABABR2; settings: 100 nM CGP55845, pretreatment with PTX
Chain of rat GABABR1/rat GABABR2 (Q9Z0U4 1-844 isoform Q9Z0U4-3, one chain of several): as above

GABABR2 = target: T2, GABABR2 (Rattus norvegicus, UniProt O88871); assay: Radioligand binding, membranes of HEK293 or COS-7 cells expressing GABABR2
T2 sequence (O88871 41-940): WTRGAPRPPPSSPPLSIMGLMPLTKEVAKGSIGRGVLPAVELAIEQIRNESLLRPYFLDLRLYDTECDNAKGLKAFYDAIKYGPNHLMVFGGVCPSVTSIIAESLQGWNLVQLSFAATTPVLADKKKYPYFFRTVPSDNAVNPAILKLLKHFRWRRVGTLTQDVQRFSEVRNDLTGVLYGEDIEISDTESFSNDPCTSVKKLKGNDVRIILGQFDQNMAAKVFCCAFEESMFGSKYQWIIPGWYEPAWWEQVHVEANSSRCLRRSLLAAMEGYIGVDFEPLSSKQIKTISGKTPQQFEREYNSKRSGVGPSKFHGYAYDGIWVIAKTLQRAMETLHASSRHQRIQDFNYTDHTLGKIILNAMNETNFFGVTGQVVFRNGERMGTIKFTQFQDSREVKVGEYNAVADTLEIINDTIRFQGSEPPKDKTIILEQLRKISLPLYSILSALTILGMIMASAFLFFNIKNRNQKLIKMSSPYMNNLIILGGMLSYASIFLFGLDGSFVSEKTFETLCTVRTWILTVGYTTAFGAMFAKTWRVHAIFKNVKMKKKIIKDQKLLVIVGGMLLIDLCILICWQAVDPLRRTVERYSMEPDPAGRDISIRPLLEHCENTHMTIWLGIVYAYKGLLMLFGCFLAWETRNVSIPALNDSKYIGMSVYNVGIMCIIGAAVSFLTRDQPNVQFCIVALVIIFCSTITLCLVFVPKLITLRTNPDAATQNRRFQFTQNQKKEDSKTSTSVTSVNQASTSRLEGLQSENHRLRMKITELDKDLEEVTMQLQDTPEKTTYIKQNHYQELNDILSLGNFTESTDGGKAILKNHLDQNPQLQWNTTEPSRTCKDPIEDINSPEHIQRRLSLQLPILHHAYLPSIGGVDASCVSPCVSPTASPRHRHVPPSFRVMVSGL

[5] = rat, in vivo; cited from earlier work
GABA receptors = settings: in vivo; cited from earlier work
rat GABABR2 (rat) [6] = target: rat GABABR2 (rat) (UniProt O88871); assay: cell-based or functional assay
rat GABABR2 (rat) [7] = target: rat GABABR2 (rat) (UniProt O88871); assay: cell-based or functional assay; remark: listed apart in the source

Compound: [Ba+2] [Ba^++]
Block of GABA-elicited currents (GABABR1b/GABABR2 [1]): completely blocked

Compound: CCCCP(=O)(O)CCCN [CGP36742]
Learning performance [2]: improve learning performance | Performance in conditioned spatial color task [3]: improve

Compound: C[C@H](NC[C@H](O)CP(=O)(O)CC1CCCCC1)c1ccc(Cl)c(Cl)c1 [CGP54626]
Binding profile compared with GABABR1 alone (GABABR1/R2): not different from those transfected with GABABR1 alone | pKi (GABABR1): 8.95 | pKB (GABABR1b/GABABR2 [4]): 7.48 | Shift of the GABA concentration-response curve (GABABR1b/GABABR2 [4]; oocytes): Right-ward shifts

pKi (GABABR1): 8.7 | Block of baclofen-stimulated acidification response (rat GABABR1/rat GABABR2): blocked | pKB (GABABR1b/GABABR2 [4]): 8.60 | Block of currents stimulated by GABA (GABABR1b/GABABR2 [4]; oocytes, CGP55845 1 μM, reversible): completely blocked | Shift of the GABA concentration-response curve (GABABR1b/GABABR2 [4]; oocytes): Right-ward shifts
Compound: C[C@H](NC[C@H](O)CP(=O)(O)Cc1ccccc1)c1ccc(Cl)c(Cl)c1 [CGP55845]
Binding profile compared with GABABR1 alone (GABABR1/R2): not different from those transfected with GABABR1 alone | Block of GABA-elicited currents (GABABR1b/GABABR2 [1]): completely blocked; also recorded: abolished

Compound: CC1(C)CO[C@@H](CC(=O)O)CN1 [SCH-50911]
Binding profile compared with GABABR1 alone (GABABR1/R2): not different from those transfected with GABABR1 alone

Compound: C[C@H](NC[C@H](O)CP(=O)(O)CC1CCCCC1)c1ccc(Cl)c(Cl)c1 [[^3H]-CGP54626]
Labeling of membranes by radioligand (GABABR2): not those expressing GABABR2 | Labeling of membranes by radioligand (GABABR1; HEK293 or COS-7 cells expressing GABABR1): labeled

Compound: NCC(CC(=O)O)c1ccc(Cl)cc1 (stereo not drawn) [baclofen]
Reinforcing effects of cocaine [5]: attenuate the reinforcing effects of cocaine

Compound: NCC(CP(=O)(O)O)c1ccc(Cl)cc1 (stereo not drawn) [phaclofen]
Dopamine release in the ventral pallidum (GABA receptors): increased dopamine release

Compound: pertussis toxin
Block of baclofen-stimulated acidification response (rat GABABR1/rat GABABR2): blocked | Effect on GABA-stimulated currents (GABABR1b/GABABR2 [4]; oocytes injected with pertussis toxin 2 ng/oocyte 6 h before voltage clamping): abolished

K+ (GIRK) currents in response to 100 µM GABA, HEK-293 cells (rat GABABR2 (rat) [6]): 1050 pA
Compound: rat GABABR1a (from UniProt Q9Z0U4 20-960) (receptor)

Magnitude of GIRK currents stimulated by GABA, HEK-293, mean (pA) (rat GABABR2 (rat) [6]): 658 pA | Magnitude of GIRK currents stimulated by GABA, oocytes, mean (nA) (rat GABABR2 (rat) [6]): 1400 nA | agonist-evoked extracellular acidification rate, microphysiometer, co-transfected CHO cells (rat GABABR2 (rat) [6]): 9 fold | Magnitude of GIRK currents stimulated by GABA, HEK-293, mean (pA) (rat GABABR2 (rat) [7]): 470 pA | Magnitude of GIRK currents stimulated by GABA, oocytes, mean (nA) (rat GABABR2 (rat) [7]): 832 nA
Compound: rat GABABR1b (from UniProt Q9Z0U4 164-960) (receptor)

— US20020156265A1, “DNA encoding a GABABR2 polypeptide and uses thereof” (priority 1998, published 2002)
